{"source": "the NIST ThermoML archive (doi:10.1016/j.fluid.2011.07.005)", "key": {"[1]": {"assay": "refractive index (Na D-line) (dimensionless)", "conditions": "298.15 K; 101.33 kPa; Liquid; Standard Abbe refractometry"}, "[2]": {"conditions": "298.15 K; 101.33 kPa; Liquid; Vibrating tube method"}, "[3]": {"assay": "xn = mol fraction of the nth substance listed", "conditions": "298.15 K, 101.3 kPa, Liquid, Vibrating tube method"}, "[4]": {"assay": "refractive index (Na D-line) (dimensionless); xn = mol fraction of the nth substance listed", "conditions": "298.15 K, 101.3 kPa, Liquid, Standard Abbe refractometry"}}, "note": "Numbers after ± are expanded uncertainties.", "data": [{"smiles": "CC(CC(C)(C)C)CP(=O)([O-])CC(C)CC(C)(C)C.CCCCCCCCCCCCCC[P+](CCCCCC)(CCCCCC)CCCCCC", "values": [{"measurement": "refractive index", "setting": "[1]", "result": "1.47125 ± 0.00039"}, {"measurement": "mass density", "setting": "[2]", "result": "886.43 ± 0.24", "unit": "kg/m3"}]}, {"smiles": "CCCCCCCCCCCCCC[P+](CCCCCC)(CCCCCC)CCCCCC.[Cl-]", "note": "[trihexyl(tetradecyl)phosphonium chloride] + CCO", "values": [{"measurement": "mass density", "setting": "[3]; x2 = 0.0616", "result": "891.17 ± 0.23", "unit": "kg/m3"}, {"measurement": "mass density", "setting": "[3]; x2 = 0.1053", "result": "890.69 ± 0.22", "unit": "kg/m3"}, {"measurement": "mass density", "setting": "[3]; x2 = 0.2113", "result": "889.27 ± 0.21", "unit": "kg/m3"}, {"measurement": "mass density", "setting": "[3]; x2 = 0.3038", "result": "887.74 ± 0.2", "unit": "kg/m3"}, {"measurement": "mass density", "setting": "[3]; x2 = 0.4034", "result": "885.65 ± 0.19", "unit": "kg/m3"}, {"measurement": "mass density", "setting": "[3]; x2 = 0.499", "result": "882.9 ± 0.18", "unit": "kg/m3"}, {"measurement": "mass density", "setting": "[3]; x2 = 0.6004", "result": "878.9 ± 0.18", "unit": "kg/m3"}, {"measurement": "mass density", "setting": "[3]; x2 = 0.7038", "result": "872.77 ± 0.17", "unit": "kg/m3"}, {"measurement": "mass density", "setting": "[3]; x2 = 0.7993", "result": "863.65 ± 0.17", "unit": "kg/m3"}, {"measurement": "mass density", "setting": "[3]; x2 = 0.8999", "result": "845.08 ± 0.17", "unit": "kg/m3"}, {"measurement": "mass density", "setting": "[3]; x2 = 0.9497", "result": "826.4 ± 0.19", "unit": "kg/m3"}, {"measurement": "mass density", "setting": "[3]; x2 = 0.9808", "result": "805.94 ± 0.21", "unit": "kg/m3"}, {"measurement": "refractive index", "setting": "[4]; x2 = 0.0616", "result": "1.4814 ± 0.0004"}, {"measurement": "refractive index", "setting": "[4]; x2 = 0.1053", "result": "1.4807 ± 0.0004"}, {"measurement": "refractive index", "setting": "[4]; x2 = 0.2113", "result": "1.4789 ± 0.0004"}, {"measurement": "refractive index", "setting": "[4]; x2 = 0.3038", "result": "1.4764 ± 0.0004"}, {"measurement": "refractive index", "setting": "[4]; x2 = 0.4034", "result": "1.4742 ± 0.0004"}, {"measurement": "refractive index", "setting": "[4]; x2 = 0.499", "result": "1.4709 ± 0.0004"}, {"measurement": "refractive index", "setting": "[4]; x2 = 0.6004", "result": "1.466 ± 0.0004"}, {"measurement": "refractive index", "setting": "[4]; x2 = 0.7038", "result": "1.4585 ± 0.0004"}, {"measurement": "refractive index", "setting": "[4]; x2 = 0.7993", "result": "1.4473 ± 0.0004"}, {"measurement": "refractive index", "setting": "[4]; x2 = 0.8999", "result": "1.425 ± 0.0004"}, {"measurement": "refractive index", "setting": "[4]; x2 = 0.9497", "result": "1.4058 ± 0.0004"}, {"measurement": "refractive index", "setting": "[4]; x2 = 0.9808", "result": "1.3801 ± 0.0004"}]}, {"smiles": "CCCCCCCCCCCCCC[P+](CCCCCC)(CCCCCC)CCCCCC.[Cl-]", "note": "[trihexyl(tetradecyl)phosphonium chloride]", "values": [{"measurement": "refractive index", "setting": "[1]", "result": "1.48175 ± 0.00039"}, {"measurement": "mass density", "setting": "[2]", "result": "891.82 ± 0.24", "unit": "kg/m3"}]}, {"smiles": "CCCCCCCCCCCCCC[P+](CCCCCC)(CCCCCC)CCCCCC.[Cl-]", "note": "[trihexyl(tetradecyl)phosphonium chloride] + CC(C)OC(C)C", "values": [{"measurement": "mass density", "setting": "[3]; x2 = 0.0515", "result": "889.99 ± 0.23", "unit": "kg/m3"}, {"measurement": "mass density", "setting": "[3]; x2 = 0.0994", "result": "888.06 ± 0.22", "unit": "kg/m3"}, {"measurement": "mass density", "setting": "[3]; x2 = 0.2017", "result": "883.38 ± 0.21", "unit": "kg/m3"}, {"measurement": "mass density", "setting": "[3]; x2 = 0.2989", "result": "878.11 ± 0.2", "unit": "kg/m3"}, {"measurement": "mass density", "setting": "[3]; x2 = 0.4018", "result": "871.47 ± 0.19", "unit": "kg/m3"}, {"measurement": "mass density", "setting": "[3]; x2 = 0.4997", "result": "863.46 ± 0.19", "unit": "kg/m3"}, {"measurement": "mass density", "setting": "[3]; x2 = 0.5994", "result": "852.63 ± 0.18", "unit": "kg/m3"}, {"measurement": "mass density", "setting": "[3]; x2 = 0.7017", "result": "836.78 ± 0.18", "unit": "kg/m3"}, {"measurement": "mass density", "setting": "[3]; x2 = 0.8004", "result": "814.03 ± 0.18", "unit": "kg/m3"}, {"measurement": "mass density", "setting": "[3]; x2 = 0.8993", "result": "778.62 ± 0.19", "unit": "kg/m3"}, {"measurement": "mass density", "setting": "[3]; x2 = 0.9491", "result": "752.99 ± 0.21", "unit": "kg/m3"}, {"measurement": "refractive index", "setting": "[4]; x2 = 0.0515", "result": "1.4808 ± 0.0004"}, {"measurement": "refractive index", "setting": "[4]; x2 = 0.0994", "result": "1.4794 ± 0.0004"}, {"measurement": "refractive index", "setting": "[4]; x2 = 0.2017", "result": "1.4763 ± 0.0004"}, {"measurement": "refractive index", "setting": "[4]; x2 = 0.2989", "result": "1.4726 ± 0.0004"}, {"measurement": "refractive index", "setting": "[4]; x2 = 0.4018", "result": "1.4678 ± 0.0004"}, {"measurement": "refractive index", "setting": "[4]; x2 = 0.4997", "result": "1.4641 ± 0.0004"}, {"measurement": "refractive index", "setting": "[4]; x2 = 0.5994", "result": "1.4553 ± 0.0004"}, {"measurement": "refractive index", "setting": "[4]; x2 = 0.7017", "result": "1.4478 ± 0.0004"}, {"measurement": "refractive index", "setting": "[4]; x2 = 0.8004", "result": "1.4384 ± 0.0004"}, {"measurement": "refractive index", "setting": "[4]; x2 = 0.8993", "result": "1.4076 ± 0.0004"}, {"measurement": "refractive index", "setting": "[4]; x2 = 0.9491", "result": "1.3881 ± 0.0004"}]}]}
